# Results reported in ChEMBL document CHEMBL1201862, “PubChem BioAssay data set” (2004).
# Calls of active or inactive are those of the source.
# Tests used:
# Assay type in all cases: functional
# [1] = target: Voltage-dependent T-type calcium channel subunit alpha-1H (Homo sapiens, UniProt O95180); experiment: human CACNA1H calcium influx blockade – cell-based, synthetic library set 1, calcium flux (AID 493022)
# Hexokinase = Hexokinase (Trypanosoma brucei, UniProt Q38C41); experiment: Confirmation assay for inhibitors of Trypanosoma brucei hexokinase 1-Analogue-first series. [Related pubchem assays (depositor defined):AID1430, AID1632, AID2516, AID2560, AID2579, AID2600, AID449725, AID492951]
# [2] = target: T1, Kappa-type opioid receptor (Homo sapiens, UniProt P41145); experiment: SAR analysis of Antagonists of the Kappa Opioid Receptor (KOR) using an Image-Based Assay - Set 3. [Related pubchem assays (depositor defined):AID1777, AID1785]
# Mu-type opioid receptor = Mu-type opioid receptor (Homo sapiens, UniProt P35372); experiment: SAR Analysis of Antagonists of the MOR Receptor using an Image-Based Assay - Set 3. [Related pubchem assays (depositor defined):AID1777, AID1785, AID1786, AID1966, AID2133, AID2136, AID2284, AID2285, AID2420]
# [3] = target: Delta-type opioid receptor (Homo sapiens, UniProt P41143); experiment: SAR Analysis of Antagonists of the DOR Receptor using an Image-Based Assay - Set 3. [Related pubchem assays (depositor defined):AID1777, AID1785];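 note: U2OS cells expressing DOR1 and beta-arrestin GFP stimulated with 100 nM SNC80; imaging of GFP-tagged beta-arrestin moving into spots after receptor activation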
# [4] = target: T1, Kappa-type opioid receptor; experiment: SAR analysis of small molecule antagonists of the kappa opioid receptor via a luminescent beta-arrestin assay - Set 3. [Related pubchem assays (depositor defined):AID1777, AID1778, AID1785, AID1786, AID1966, AID2133, AID2136, AID2285, AID2495]
# Coagulation factor XII = target: T2, Coagulation factor XII (Homo sapiens, UniProt P00748); experiment: Factor XIIa Dose Response Confirmation from Single Well HTS. [Related pubchem assays (depositor defined):AID701]
# T2 sequence (P00748 whole entry): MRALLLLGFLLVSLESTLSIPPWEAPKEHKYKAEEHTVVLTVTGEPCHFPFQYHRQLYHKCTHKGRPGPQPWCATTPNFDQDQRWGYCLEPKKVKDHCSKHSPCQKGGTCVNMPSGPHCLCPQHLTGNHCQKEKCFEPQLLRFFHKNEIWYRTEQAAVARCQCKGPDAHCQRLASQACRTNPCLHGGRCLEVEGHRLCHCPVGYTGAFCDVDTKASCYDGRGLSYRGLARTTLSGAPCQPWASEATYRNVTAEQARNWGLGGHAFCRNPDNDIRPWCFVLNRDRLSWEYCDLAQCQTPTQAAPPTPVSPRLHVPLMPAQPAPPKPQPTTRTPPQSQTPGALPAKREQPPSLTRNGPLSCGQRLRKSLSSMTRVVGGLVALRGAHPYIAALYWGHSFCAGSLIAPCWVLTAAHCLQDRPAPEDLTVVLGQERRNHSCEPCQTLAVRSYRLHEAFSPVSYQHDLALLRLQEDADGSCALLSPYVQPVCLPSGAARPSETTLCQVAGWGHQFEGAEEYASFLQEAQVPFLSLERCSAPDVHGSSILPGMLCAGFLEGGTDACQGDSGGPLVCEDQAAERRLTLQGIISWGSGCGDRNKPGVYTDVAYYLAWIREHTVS
# T1 sequence (P41145 whole entry): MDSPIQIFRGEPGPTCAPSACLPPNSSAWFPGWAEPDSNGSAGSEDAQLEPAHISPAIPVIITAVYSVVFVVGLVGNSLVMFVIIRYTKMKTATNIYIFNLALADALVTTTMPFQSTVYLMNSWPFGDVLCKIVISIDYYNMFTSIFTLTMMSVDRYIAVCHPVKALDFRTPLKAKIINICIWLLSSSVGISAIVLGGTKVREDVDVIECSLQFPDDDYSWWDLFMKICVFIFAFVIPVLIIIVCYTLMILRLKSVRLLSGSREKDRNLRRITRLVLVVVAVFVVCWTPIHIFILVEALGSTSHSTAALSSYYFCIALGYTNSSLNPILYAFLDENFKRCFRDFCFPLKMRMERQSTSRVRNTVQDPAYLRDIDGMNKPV
# Chain of Hexokinase (Q38C41 whole entry): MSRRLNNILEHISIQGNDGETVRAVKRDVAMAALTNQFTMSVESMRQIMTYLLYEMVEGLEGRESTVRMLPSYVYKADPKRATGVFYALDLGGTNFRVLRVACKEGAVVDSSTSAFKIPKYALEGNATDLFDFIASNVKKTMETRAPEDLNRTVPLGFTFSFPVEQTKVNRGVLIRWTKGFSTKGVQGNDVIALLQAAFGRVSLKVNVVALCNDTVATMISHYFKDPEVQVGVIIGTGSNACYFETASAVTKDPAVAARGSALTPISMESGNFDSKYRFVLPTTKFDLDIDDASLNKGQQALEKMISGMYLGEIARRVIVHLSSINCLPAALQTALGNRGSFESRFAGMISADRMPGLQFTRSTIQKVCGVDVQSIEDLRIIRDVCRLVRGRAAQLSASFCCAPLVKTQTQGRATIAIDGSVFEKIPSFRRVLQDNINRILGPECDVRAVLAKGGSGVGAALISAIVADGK
# Chain of Delta-type opioid receptor (P41143 whole entry): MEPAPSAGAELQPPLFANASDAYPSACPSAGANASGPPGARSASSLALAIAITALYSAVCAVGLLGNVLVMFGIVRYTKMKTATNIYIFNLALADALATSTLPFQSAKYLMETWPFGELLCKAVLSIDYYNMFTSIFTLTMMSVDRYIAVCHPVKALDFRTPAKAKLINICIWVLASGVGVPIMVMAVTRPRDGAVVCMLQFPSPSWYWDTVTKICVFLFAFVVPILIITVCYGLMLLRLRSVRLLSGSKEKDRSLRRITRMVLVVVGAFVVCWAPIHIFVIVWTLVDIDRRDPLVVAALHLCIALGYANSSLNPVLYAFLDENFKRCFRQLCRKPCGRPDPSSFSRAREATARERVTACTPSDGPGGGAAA
# Chain of Voltage-dependent T-type calcium channel subunit alpha-1H (O95180 whole entry): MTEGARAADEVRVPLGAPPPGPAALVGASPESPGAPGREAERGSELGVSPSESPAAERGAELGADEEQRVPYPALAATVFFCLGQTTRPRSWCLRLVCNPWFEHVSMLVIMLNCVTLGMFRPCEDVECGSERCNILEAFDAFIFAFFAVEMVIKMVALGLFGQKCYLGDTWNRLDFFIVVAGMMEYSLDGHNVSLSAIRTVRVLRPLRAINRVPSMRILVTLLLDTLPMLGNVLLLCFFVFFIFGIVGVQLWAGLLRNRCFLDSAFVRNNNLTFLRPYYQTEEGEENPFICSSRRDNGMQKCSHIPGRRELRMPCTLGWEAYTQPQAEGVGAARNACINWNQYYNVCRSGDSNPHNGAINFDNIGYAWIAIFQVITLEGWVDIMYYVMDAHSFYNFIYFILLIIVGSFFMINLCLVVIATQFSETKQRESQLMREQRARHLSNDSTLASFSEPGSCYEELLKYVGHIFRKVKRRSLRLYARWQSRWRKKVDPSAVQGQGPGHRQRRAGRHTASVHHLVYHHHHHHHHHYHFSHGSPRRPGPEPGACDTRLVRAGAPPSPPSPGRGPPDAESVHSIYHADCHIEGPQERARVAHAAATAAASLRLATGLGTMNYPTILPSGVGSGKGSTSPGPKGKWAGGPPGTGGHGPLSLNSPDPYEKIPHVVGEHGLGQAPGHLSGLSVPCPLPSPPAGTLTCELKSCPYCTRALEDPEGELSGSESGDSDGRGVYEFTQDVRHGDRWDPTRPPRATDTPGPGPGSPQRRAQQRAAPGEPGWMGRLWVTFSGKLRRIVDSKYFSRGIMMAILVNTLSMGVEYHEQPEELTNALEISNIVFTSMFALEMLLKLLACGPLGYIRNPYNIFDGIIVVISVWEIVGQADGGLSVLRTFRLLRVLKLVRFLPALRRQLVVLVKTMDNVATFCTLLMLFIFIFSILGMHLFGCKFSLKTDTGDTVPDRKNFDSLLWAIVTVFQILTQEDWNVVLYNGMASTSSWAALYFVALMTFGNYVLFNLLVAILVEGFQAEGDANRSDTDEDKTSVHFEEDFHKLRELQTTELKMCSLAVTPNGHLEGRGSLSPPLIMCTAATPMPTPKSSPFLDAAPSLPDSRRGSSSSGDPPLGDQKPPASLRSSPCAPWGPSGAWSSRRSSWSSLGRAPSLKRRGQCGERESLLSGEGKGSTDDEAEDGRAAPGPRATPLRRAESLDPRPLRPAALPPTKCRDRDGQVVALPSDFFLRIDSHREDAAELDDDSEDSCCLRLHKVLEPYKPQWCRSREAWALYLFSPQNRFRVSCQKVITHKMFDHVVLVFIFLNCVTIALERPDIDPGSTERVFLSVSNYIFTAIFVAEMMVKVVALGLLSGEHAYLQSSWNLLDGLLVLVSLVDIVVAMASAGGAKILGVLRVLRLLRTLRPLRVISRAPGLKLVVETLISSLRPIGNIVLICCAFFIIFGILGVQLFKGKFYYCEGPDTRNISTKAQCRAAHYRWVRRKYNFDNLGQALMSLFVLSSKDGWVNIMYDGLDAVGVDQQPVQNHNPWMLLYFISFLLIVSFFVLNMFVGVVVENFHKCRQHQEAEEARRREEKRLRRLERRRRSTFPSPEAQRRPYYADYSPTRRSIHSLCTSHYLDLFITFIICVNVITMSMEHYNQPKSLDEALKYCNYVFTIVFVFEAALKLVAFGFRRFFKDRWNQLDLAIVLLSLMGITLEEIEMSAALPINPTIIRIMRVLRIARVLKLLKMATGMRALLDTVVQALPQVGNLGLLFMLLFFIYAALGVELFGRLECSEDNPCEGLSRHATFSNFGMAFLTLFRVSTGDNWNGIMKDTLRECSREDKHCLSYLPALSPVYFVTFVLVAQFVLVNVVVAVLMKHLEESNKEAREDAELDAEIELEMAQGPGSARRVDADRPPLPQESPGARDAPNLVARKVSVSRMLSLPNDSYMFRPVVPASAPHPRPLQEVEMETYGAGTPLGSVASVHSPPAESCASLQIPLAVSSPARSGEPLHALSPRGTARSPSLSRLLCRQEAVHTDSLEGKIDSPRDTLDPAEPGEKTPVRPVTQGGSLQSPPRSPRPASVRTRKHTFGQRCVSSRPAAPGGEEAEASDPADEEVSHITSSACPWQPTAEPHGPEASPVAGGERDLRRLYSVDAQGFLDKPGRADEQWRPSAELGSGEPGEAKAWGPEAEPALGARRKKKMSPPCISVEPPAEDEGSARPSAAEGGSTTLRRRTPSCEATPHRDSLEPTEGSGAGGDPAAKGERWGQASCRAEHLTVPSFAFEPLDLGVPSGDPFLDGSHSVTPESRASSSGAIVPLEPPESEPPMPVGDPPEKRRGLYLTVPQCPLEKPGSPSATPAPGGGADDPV
# Chain of Mu-type opioid receptor (P35372 whole entry): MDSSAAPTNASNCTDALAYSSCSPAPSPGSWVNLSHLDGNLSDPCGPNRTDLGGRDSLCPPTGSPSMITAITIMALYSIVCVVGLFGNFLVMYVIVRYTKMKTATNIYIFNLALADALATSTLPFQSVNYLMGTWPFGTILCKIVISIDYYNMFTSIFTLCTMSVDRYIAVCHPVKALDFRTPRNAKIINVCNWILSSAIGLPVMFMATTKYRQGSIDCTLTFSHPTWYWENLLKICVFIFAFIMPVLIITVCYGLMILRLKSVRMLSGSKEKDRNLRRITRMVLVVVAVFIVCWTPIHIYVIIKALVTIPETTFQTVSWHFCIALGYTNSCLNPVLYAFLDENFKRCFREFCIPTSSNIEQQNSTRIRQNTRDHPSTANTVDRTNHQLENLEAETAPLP
structure (smiles),measurement,setting,value
Cc1ccc(-c2nnc(NC(=O)COc3ccc(Cl)cc3)o2)cc1C,EC50,[1],1.4 µM (active)
COc1ccccc1-n1sc2ccccc2c1=O,IC50,Hexokinase,7.9 µM (active)
Cc1cccc(S(=O)(=O)NCc2ccc(C(=O)NCCN(Cc3ccccc3)Cc3ccccc3)cc2)c1,IC50,[2],> 32 µM (inactive)
same,IC50,Mu-type opioid receptor,> 32 µM (inactive)
same,IC50,[3],> 32 µM (inactive)
same,IC50,[4],> 20 µM (inactive)
COc1ccc(/C=c2/sc3n(c2=O)NC2(c4ccccc4)N(C)C(=O)N(C)C2(c2ccccc2)N=3)cc1 (configuration not stated),IC50,Coagulation factor XII,> 50 µM (inactive)
